Structures are written as SMILES. Several values for one entry are separate records, joined by “and”; a condition that tells them apart may be missing. Equal entries are not always repeated.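 All cell lines were grown in 96-well plates and treated with compound for 48 hours. GI50 = concentration required for 50% inhibition of growth. Definition used: TGI = concentration required for complete inhibition of growth.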 Where only a bound is given, the exact number is not on record here.

For 21 compounds, TGI and GI50 results are on record in PubChem BioAssay (NCI).

What all share (assay): inhibition of tumour cell growth, NCI panel, 48 h
For test [1], the system named is OVCAR-4 ovarian.
The subject of test [2] is RPMI-8226 leukemia.
The test system of test [3] is NCI-H460 lung.
Test [4] relates to OVCAR-5 ovarian.
Test [5] relates to HCC-2998 colon.
The subject of test [6] is 786-0 renal.
Test [7] deals with SK-OV-3 ovarian.
Test [8] concerns EKVX NSCLC.
The subject of test [9] is K-562 leukemia.
Test [10] relates to CAKI-1 renal.

For the compound `CCOC(=O)Nc1cc2c(c(N)n1)N=C(c1ccc(Cl)cc1Cl)CN2`, the TGI is 39.7 µM in [1]; above 100 µM in test [2]; 6.3 µM in test [3]; 45.1 µM in [4]; 2.6 µM in test [5]; 18.5 µM in test [6]. In addition, the TGI in [7] was 23.2 µM; in [8], 31.9 µM; in test [9], 11.9 µM; in test [10] it was 33.7 µM.

`CCCCCCNC(=O)CCN(C(=O)O)S(=O)(=O)c1ccc(NC(=O)c2ccccc2)cc1`: the TGI in [1] was above 100 µM; in [2] it was 54.4 µM; in test [3], above 62.2 µM; in [4], above 100 µM; in test [5], above 100 µM; in test [6] it was above 100 µM. In addition, the TGI in [7] was above 100 µM; in [8], above 100 µM; in test [9], above 71.1 µM; in [10] it was above 100 µM.

Take `COc1cccc(NC(=O)/C(CS(=O)(=O)CCC(C(C)=O)C(C)=O)=N\NC(C)(C)C)c1`: the TGI in test [1], in test [2], in test [3], in test [4], in test [5] and in test [6] was above 100 µM throughout. Moreover, the TGI in test [7], in [8], in test [9] and in test [10] was above 100 µM throughout.

In the case of `COc1oc(C2C/C(=C/C(C)=C/C(C)=C/C(C)=C/c3ccc([N+](=O)[O-])cc3)CO2)c(C)c(=O)c1C` (stereo unspecified), the TGI in [1] is above 42.2 µM; in test [2], 20.9 µM; in test [3], 15.8 µM; in [4] it was above 100 µM; in [5], above 100 µM; in [6], 21.6 µM. The TGI in test [7] is above 63.5 µM; in [8], 82.6 µM; in test [9] it was 21.3 µM; in [10], 30.9 µM.

Take `C=C1C(C)C2C(Cc3ccccc3)NC(=O)C23C(OC(C)=O)C=CC(C)(O)C(=O)C(C)C/C=C/C3C1O` (stereo unspecified): the GI50 was 10.4 µM in test [1]; 3.9 µM in test [2]; 0.291 µM in test [3]; above 500 µM in [5]; 2.05 µM in test [6]; 0.0761 µM and 0.23 µM in test [7]. For the same compound, the GI50 was 13.6 µM in [9] and 0.05 µM in test [10]. In addition, the TGI in test [1] is 99.8 µM and > 500 µM; in [2], 65.5 µM and > 500 µM; in test [3] it was above 295 µM; in test [4] it was above 500 µM; in test [5], above 500 µM; in test [6] it was 56.2 µM and > 120 µM. Further, the TGI in test [7] was 49.5 µM and 76.1 µM; in test [8], > 95.5 µM and 30 µM; in [9], above 500 µM; in test [10] it was 1.12 µM and 1.66 µM.

For the compound `COC1=CC(=O)[C@@]2(C)C(C)[C@H](c3ccccc3)[C@H]2C1=O` (stereo partly specified), the TGI in test [1], in test [2], in test [3], in test [4], in test [5] and in test [6] was above 100 µM in each case. Further, the TGI in [7], in test [8], in test [9] and in [10] was above 100 µM throughout.

As for `Cc1ccc(C)c(N2CCN(c3ccncc3N)CC2)c1`, the GI50 in test [1] is 19.1 µM; in test [2], 11.7 µM; in test [3], 13.7 µM; in test [4], 22.1 µM; in [5] it was 15.7 µM; in test [6], 20.5 µM. The GI50 in test [7] was 21.9 µM; in [8], 10.8 µM; in test [9], 8.67 µM; in test [10], 13.4 µM. Also, the TGI in [1] was above 100 µM; in [2] it was 35.5 µM; in [3] it was 31.9 µM; in [4], above 100 µM; in [5] it was 31.8 µM; in test [6], 58.1 µM. Besides, the TGI in test [7] turned out to be 73.5 µM; in test [8], 84.8 µM; in test [9], 57.1 µM; in test [10] it was 83.9 µM.

Turning to `C#Cc1c(C)c(/C=C/C(C)=C\C(=O)OC)n(C)c1C`, the TGI in test [1], in test [2], in [3], in test [4], in test [5] and in test [6] was above 100 µM in each case. Also, the TGI in test [7], in [8], in test [9] and in [10] was above 100 µM in each case.

With `Cc1[nH]c2c(C)c3c([nH]c4ccc(Cl)cc43)c(C)c2c(=O)c1C`, the TGI in [1] is above 64.1 µM; in test [2], 24.9 µM; in [3] it was 13.5 µM; in test [4] it was 12.4 µM; in test [5], 16.5 µM; in [6], 33 µM. Also, the TGI in test [7] is above 73.8 µM; in test [8] it was above 100 µM; in test [9], above 100 µM; in [10], 40.2 µM.

As for `COc1cc([C@H]2OC[C@@H]3C(c4cc(OC)c5c(c4)OCO5)OC[C@H]23)cc(OC)c1OC` (stereo partly specified), the TGI in [1], in test [2], in test [3], in test [4], in [5] and in [6] was above 100 µM in each case. In addition, the TGI in [7], in test [8], in test [9] and in [10] was above 100 µM throughout.

For `CC/C(=C/c1ccc(OC)cc1)[N+](=O)[O-]`, the GI50 in test [1] was 3.15 µM; in test [2], 1.76 µM; in [3], 2.11 µM; in [4] it was 2.34 µM; in test [5], 1.89 µM; in [6], 1.7 µM. For the same compound, the GI50 in [7] is 14.4 µM; in test [8] it was 14.2 µM; in test [9], 1.95 µM; in test [10], 1.67 µM. In addition, the TGI turned out to be 12.1 µM in test [1]; 5.31 µM in [2]; 4.47 µM in test [3]; 6.08 µM in test [4]; 3.42 µM in test [5]; 3.14 µM in test [6]. Further, the TGI in test [7] was 27.5 µM; in test [8], 27.2 µM; in test [9], above 100 µM; in test [10], 3.33 µM.

Consider `Nc1nc(N)c(CCCCc2ccc([N+](=O)[O-])cc2)c(N)n1`, for which the TGI in test [1], in test [2], in [3], in [4], in test [5] and in [6] was above 100 µM throughout. Further, the TGI in test [7], in test [8], in [9] and in [10] was above 100 µM in each case.

Take `O=C1c2ccccc2C(=O)c2c1ccc1c3ccccc3n(-c3ccccc3)c21`: the TGI in [1] is 33.5 µM; in test [2] it was 25.8 µM; in [3], 63.8 µM; in test [4] it was 47 µM; in [5], 72.6 µM; in test [6], 52.4 µM. Also, the TGI in [7] was above 100 µM; in test [8] it was 56 µM; in [9] it was 29.8 µM; in test [10] it was 35.1 µM.

For `CCOC(=O)c1c(CN2CCCCC2)nc2ccc(Cl)cc2c1-c1ccccc1`, the GI50 in [1] was 37.7 µM; in [2], 20.4 µM; in test [3], 20 µM; in test [4] it was 17.6 µM; in test [5], 19.1 µM; in [6], 19.2 µM. The GI50 in test [7] was 23.1 µM; in test [8], 25.2 µM; in [9] it was 25.6 µM; in test [10], 24.7 µM. Besides, the TGI is above 100 µM in test [1]; 46.2 µM in test [2]; 43.2 µM in test [3]; 36.6 µM in test [4]; 35.8 µM in test [5]; 41.8 µM in [6]. Further, the TGI in [7] worked out at 49 µM; in [8], 69.2 µM; in [9], 92.7 µM; in test [10], 72.3 µM.

Turning to `CCOC(=O)C(Oc1ccc(OC)c2c1C(=O)CCC2)c1ccccc1` (stereo unspecified), the TGI in [1], in [2], in [3], in test [4], in test [5] and in test [6] was above 100 µM throughout. The TGI in [7], in [8], in [9] and in test [10] was above 100 µM in each case.

As for `O=C(NOCCO)c1ccc2cncn2c1Nc1ccc(I)cc1F`, the GI50 is > 10 µM and 4.29 µM in [1]; > 10 µM and 24.6 µM in test [2]; > 10 µM and 21.9 µM in test [3]; 0.00313 µM and < 0.01 µM in test [4]; 0.00299 µM and < 0.01 µM in test [5]; > 10 µM and 27.1 µM in [6]. In addition, the GI50 in test [7] was > 3.15 µM and 0.791 µM; in [8], 0.0629 µM; in [9] it was 0.359 µM and 0.219 µM; in test [10], 0.111 µM and 0.292 µM. In addition, the TGI in test [1] was above 100 µM; in [2], above 100 µM; in test [3], above 100 µM; in test [4], above 100 µM; in test [6] it was above 100 µM; in test [7] it was above 96.2 µM. Moreover, the TGI is above 10 µM in [8], above 100 µM in [9] and above 100 µM in test [10].

`COC(=O)C(=O)C(C(=O)C(=O)Nc1cc(C)ccc1C)c1nc2ccccc2[nH]c1=O` (stereo unspecified): the TGI was above 100 µM in test [1]; 71.4 µM in [2]; above 100 µM in test [3]; above 100 µM in test [4]; above 100 µM in [5]; above 100 µM in test [6]. Besides, the TGI in test [7], in [8], in test [9] and in test [10] was above 100 µM throughout.

Consider `O=C(Nc1c[nH]c(=O)[nH]c1=O)Oc1ccccc1`, for which the TGI in [1], in test [2], in test [3], in test [4], in [5] and in [6] was above 100 µM in each case. Moreover, the TGI in [7], in [8], in test [9] and in [10] was above 100 µM each time.

`CN(C(=O)C12C3C4C1C1C2C3C41C#N)C(C)(C)C` (stereo unspecified): the TGI in test [1], in [2], in test [3], in test [4], in test [5] and in [6] was above 100 µM in each case. Moreover, the TGI in [7], in test [8], in test [9] and in test [10] was above 100 µM each time.

As to `COc1cc(OC)c(/C=C/S(=O)(=O)Cc2ccc(OC)c(N)n2)c(OC)c1`, the GI50 is 0.0272 µM in [1]; below 0.0172 µM in test [2]; below 0.01 µM in [3]; below 0.0256 µM in test [4]; below 0.0193 µM in test [5]; below 0.01 µM in test [6]. Besides, the GI50 was below 0.01 µM in test [7], 0.0278 µM in test [8], below 0.01 µM in test [9] and below 0.01 µM in test [10]. In addition, the TGI in test [1] was above 100 µM; in [2] it was above 85.9 µM; in [4], above 100 µM; in test [5] it was above 100 µM; in test [6], above 100 µM; in test [7], above 100 µM. In addition, the TGI in [8], in [9] and in [10] was above 100 µM in each case.

In the case of `Nc1nc(SCC#CCCl)c2[nH]cnc2n1`, the GI50 is 4.32 µM in [1]; 6.86 µM in test [2]; 3.62 µM in test [3]; 4.58 µM in test [4]; 5.85 µM in [5]; 4.3 µM in [6]. Also, the GI50 in [7] was 7.56 µM; in test [8] it was 3.22 µM; in [9] it was 4.5 µM; in [10], 2.83 µM. For the same compound, the TGI turned out to be 67.4 µM in [1]; 48.8 µM in test [2]; 16.7 µM in test [3]; 17.7 µM in [4]; 18.9 µM in test [5]; 14.9 µM in [6]. For the same compound, the TGI in test [7] is 27.6 µM; in test [8], 15.4 µM; in test [9], 40.5 µM; in test [10], 10.6 µM.
